Among the test systems are HL-60(TB) leukemia; M14 melanoma; NCI-H460 lung; RXF 393 renal; SK-MEL-2 melanoma; SK-MEL-28 melanoma; SNB-19 CNS; SNB-75 CNS; UACC-62 melanoma; EKVX NSCLC.
Common to all, as to experiment: growth of human tumour cells (NCI), 48 h

Each structure is given as a SMILES string.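 Briefly, cells in 96-well plates were exposed to five compound concentrations for 48 h, and endpoints were estimated by linear interpolation. GI50 = concentration required for 50% inhibition of growth. TGI denotes the concentration required for complete inhibition of growth.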 Where only a bound is given, the exact number is not on record here.

For `COc1ccc2nc(-c3cc4c([nH]c5ccccc54)c(-c4ccc(F)c(F)c4)n3)[nH]c2c1`, the GI50 in the assay on HL-60(TB) leukemia was 2.78 µM; in the assay with M14 melanoma, 4.02 µM; in the assay on NCI-H460 lung it was 2.97 µM; with RXF 393 renal it was 3.46 µM; in the assay with SK-MEL-2 melanoma, 12.1 µM; in the assay with SK-MEL-28 melanoma, 12.7 µM. Also, the GI50 with SNB-19 CNS was 8.57 µM; in the assay with SNB-75 CNS, 14.2 µM; in the assay on UACC-62 melanoma, 2.76 µM. For the same molecule, the TGI in the assay on HL-60(TB) leukemia worked out at 7.12 µM; in the assay with M14 melanoma it was 16.9 µM; in the assay with NCI-H460 lung, 12.5 µM; with RXF 393 renal, 13.1 µM; in the assay on SK-MEL-2 melanoma, 34.9 µM; in the assay on SK-MEL-28 melanoma it was 27 µM. The TGI was > 100 µM in the assay with SNB-19 CNS, 29.7 µM in the assay on SNB-75 CNS and 10.2 µM with UACC-62 melanoma.

For `CCOC(=O)C(C(=O)OCC)=c1sc(=C(C(=O)OCC)C(=O)OCC)s1`, the TGI with EKVX NSCLC, in the assay on HL-60(TB) leukemia, in the assay with M14 melanoma, in the assay with NCI-H460 lung, with RXF 393 renal and in the assay with SK-MEL-2 melanoma was > 100 µM in each case. The TGI with SK-MEL-28 melanoma, in the assay with SNB-75 CNS and in the assay with UACC-62 melanoma was > 100 µM throughout.

Take `O=NN(CCCl)C(=O)N[C@H]1CCCC[C@@H]1Cl`: the TGI in the assay on EKVX NSCLC was > 100 µM; in the assay on HL-60(TB) leukemia it was 42.7 µM; with M14 melanoma it was > 100 µM; with NCI-H460 lung, > 100 µM; in the assay on RXF 393 renal, > 100 µM; in the assay with SK-MEL-2 melanoma, > 100 µM. In addition, the TGI with SK-MEL-28 melanoma, with SNB-19 CNS and with SNB-75 CNS was > 100 µM each time.

On to `Cc1cc2nc(C(Cl)Cl)nc(-c3ccccc3)n2n1`, for which the GI50 was 3.72 µM in the assay on EKVX NSCLC; 2.38 µM in the assay on HL-60(TB) leukemia; 1.97 µM with NCI-H460 lung; 2.27 µM in the assay on RXF 393 renal; 27.8 µM in the assay with SK-MEL-2 melanoma; 3.54 µM with SK-MEL-28 melanoma. Moreover, the GI50 is 4.04 µM in the assay on SNB-19 CNS, 1.75 µM in the assay on SNB-75 CNS and 8.55 µM in the assay with UACC-62 melanoma. The TGI in the assay on EKVX NSCLC is 20.3 µM; with HL-60(TB) leukemia, 6.35 µM; with NCI-H460 lung, 5.13 µM; with RXF 393 renal it was 5.75 µM; in the assay on SK-MEL-2 melanoma, > 100 µM; with SK-MEL-28 melanoma, 13.1 µM. In addition, the TGI in the assay on SNB-19 CNS was found to be 28 µM; with SNB-75 CNS it was 12.9 µM; with UACC-62 melanoma, 56 µM.

As for `CC#CC(=O)N1CC[C@@H](n2c(=O)n(-c3ccc(Oc4ccccc4)cc3)c3c(N)ncnc32)C1`, the GI50 with EKVX NSCLC was 19.7 µM; with HL-60(TB) leukemia it was 23.5 µM; in the assay on NCI-H460 lung, 33 µM; in the assay on RXF 393 renal it was 37.3 µM; in the assay on SK-MEL-2 melanoma, 38.8 µM; with SK-MEL-28 melanoma, 35.8 µM. Besides, the GI50 in the assay with SNB-19 CNS is 37.4 µM; in the assay with SNB-75 CNS, 29.8 µM; with UACC-62 melanoma it was 14.8 µM. Besides, the TGI with EKVX NSCLC was > 100 µM; in the assay with HL-60(TB) leukemia, 77.4 µM; in the assay with NCI-H460 lung, > 100 µM; in the assay on RXF 393 renal, > 100 µM; in the assay with SK-MEL-2 melanoma, > 100 µM; with SK-MEL-28 melanoma, > 100 µM. Further, the TGI was > 100 µM in the assay with SNB-19 CNS, > 100 µM with SNB-75 CNS and 42.8 µM with UACC-62 melanoma.

With `FC(F)(F)c1cccc(C2SCc3nc4ccccc4n32)c1` (configuration not stated), the TGI with EKVX NSCLC, with HL-60(TB) leukemia, in the assay on RXF 393 renal, in the assay with SK-MEL-2 melanoma, with SK-MEL-28 melanoma and with SNB-19 CNS was > 100 µM throughout. Also, the TGI with SNB-75 CNS and with UACC-62 melanoma was > 100 µM throughout.

In the case of `CC(=O)[O][Bi]([c]1ccccc1)[c]1ccccc1`, the GI50 in the assay with EKVX NSCLC is 19.4 µM; in the assay with HL-60(TB) leukemia it was 3.54 µM; in the assay with M14 melanoma it was 11.4 µM; in the assay on NCI-H460 lung, 18.1 µM; with RXF 393 renal, 2.45 µM; in the assay with SNB-19 CNS it was 12.6 µM. For the same molecule, the values for the GI50 in the assay on SNB-75 CNS and in the assay on UACC-62 melanoma were 16.4 µM and 11.6 µM, respectively. For the same molecule, the TGI in the assay on EKVX NSCLC is 34.5 µM; in the assay with HL-60(TB) leukemia it was 23.5 µM; in the assay on M14 melanoma, 24.5 µM; in the assay with NCI-H460 lung, 36.4 µM; in the assay on RXF 393 renal, 7.14 µM; in the assay on SNB-19 CNS, 26.8 µM. Besides, the TGI worked out at 30.2 µM with SNB-75 CNS and 24.1 µM in the assay on UACC-62 melanoma.

In the case of `Oc1c(CN2CCN(c3ccccc3F)CC2)cc(Br)c2cccnc12`, the GI50 in the assay with HL-60(TB) leukemia was 0.392 µM; in the assay with M14 melanoma, 0.924 µM; in the assay on NCI-H460 lung, 0.4 µM; in the assay on RXF 393 renal, 2.05 µM; in the assay on SK-MEL-2 melanoma, 7.65 µM; in the assay with SK-MEL-28 melanoma, 2.49 µM. For the same molecule, the results for the GI50 in the assay with SNB-19 CNS, in the assay on SNB-75 CNS and in the assay with UACC-62 melanoma were 1.14 µM, 1.91 µM and 0.631 µM, respectively. Further, the TGI with HL-60(TB) leukemia was 2.34 µM; with M14 melanoma it was 16.5 µM; in the assay with NCI-H460 lung, 9.26 µM; with RXF 393 renal, 19.1 µM; in the assay on SK-MEL-2 melanoma, > 51.6 µM; in the assay with SK-MEL-28 melanoma, > 100 µM. Moreover, the TGI in the assay with SNB-19 CNS is > 100 µM; in the assay with SNB-75 CNS, > 100 µM; with UACC-62 melanoma, 4.09 µM.

As to `C=C[C@H]1C=Cc2c(OC)cccc2[C@@H]1COP1(=S)NC(C)C(c2ccccc2)O1` (some centres not stated), the TGI was > 100 µM in the assay with EKVX NSCLC; 50.2 µM in the assay on HL-60(TB) leukemia; > 100 µM with M14 melanoma; > 100 µM in the assay on NCI-H460 lung; > 100 µM in the assay with RXF 393 renal; > 100 µM in the assay with SK-MEL-28 melanoma. Further, the TGI with SNB-19 CNS, in the assay on SNB-75 CNS and in the assay with UACC-62 melanoma was > 100 µM in each case.

For `Cc1ccccc1NC(=O)c1ccc([N+](=O)[O-])cc1`, the TGI with EKVX NSCLC, in the assay on HL-60(TB) leukemia, in the assay on M14 melanoma, in the assay on NCI-H460 lung, with RXF 393 renal and in the assay on SK-MEL-28 melanoma was > 100 µM each time. Moreover, the TGI with SNB-19 CNS, in the assay on SNB-75 CNS and in the assay on UACC-62 melanoma was > 100 µM in each case.

For the origin of these results see PubChem BioAssay (NCI).
